Values of other authors in patent US7108866B1, “Chronotherapeutic diltiazem formulations and the administration thereof” (Biovall Laboratories International SRL, priority 1999, dated 2006).

Details: at steady state

Structure (SMILES): COc1ccc([C@@H]2Sc3ccccc3N(CCN(C)C)C(=O)[C@@H]2OC(C)=O)cc1 [Diltiazem]
- Tmax: 2 to 6 h
